This passage reports GI50 and TGI results from PubChem BioAssay (NCI).

“And” between values parts separate entries of the source, which are not always exact repeats. Equal entries are not always repeated.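 The compound was tested at five concentrations on cells cultured in 96-well plates, with a 48-hour exposure period. Here, GI50 denotes the concentration required for 50% inhibition of growth. TGI is the concentration that stops growth completely.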

Some test systems named below: ACHN renal; CAKI-1 renal; CCRF-CEM leukemia; COLO 205 colon; HS 578T breast; MDA-MB-435; OVCAR-4 ovarian; OVCAR-5 ovarian; RXF 393 renal; SK-MEL-5 melanoma.
Holding throughout (test): inhibition of tumour cell growth, NCI panel, 48 h

With `COc1ccc2c(c1)c(-c1cc(-c3cn(C)c4ccc(OC)cc34)[nH]n1)cn2C`, the GI50 in the experiment with ACHN renal, with CAKI-1 renal, in the experiment on CCRF-CEM leukemia, in the experiment on COLO 205 colon, in the experiment with HS 578T breast and in the experiment on MDA-MB-435 was greater than 100 µM in each case. The GI50 with OVCAR-4 ovarian, in the experiment on OVCAR-5 ovarian, in the experiment on RXF 393 renal and in the experiment with SK-MEL-5 melanoma was greater than 100 µM throughout. Besides, the TGI in the experiment on ACHN renal, in the experiment on CAKI-1 renal, in the experiment on CCRF-CEM leukemia, in the experiment with COLO 205 colon, in the experiment on HS 578T breast and in the experiment on MDA-MB-435 was greater than 100 µM in each case. The TGI in the experiment with OVCAR-4 ovarian, in the experiment with OVCAR-5 ovarian, with RXF 393 renal and with SK-MEL-5 melanoma was greater than 100 µM in each case.
`COc1cccc(C2CC(=O)Nc3cc4c(cc32)CCC4)c1OC` (stereo not given): the GI50 is 6.72 µM in the experiment on ACHN renal; 3.36 µM with CAKI-1 renal; 2.28 µM with CCRF-CEM leukemia; 3.13 µM in the experiment on COLO 205 colon; 3.04 µM in the experiment on HS 578T breast; 1.44 µM in the experiment with MDA-MB-435. Further, the GI50 in the experiment on OVCAR-4 ovarian is 12.3 µM; in the experiment on OVCAR-5 ovarian it was 7.67 µM; with RXF 393 renal it was 3.34 µM; in the experiment with SK-MEL-5 melanoma, 2.9 µM. Also, the TGI in the experiment on ACHN renal was greater than 84 µM; in the experiment with CAKI-1 renal, 56.2 µM; with CCRF-CEM leukemia, 7.08 µM; in the experiment with COLO 205 colon, 8.48 µM; with HS 578T breast it was 34.8 µM; in the experiment on MDA-MB-435 it was 4.1 µM. Further, the TGI with OVCAR-4 ovarian is 98.2 µM; with OVCAR-5 ovarian it was greater than 80.3 µM; in the experiment with RXF 393 renal it was 13.7 µM; in the experiment with SK-MEL-5 melanoma, 11.1 µM.
Turning to `Cc1cc(S(N)(=O)=O)c(S/C(=N\NS(=O)(=O)c2ccccc2)c2ccc(Cl)c(Cl)c2)cc1Cl`, the GI50 with ACHN renal was 30 µM; with CAKI-1 renal, 36.5 µM; in the experiment with CCRF-CEM leukemia it was 86 µM; in the experiment on COLO 205 colon, 45.7 µM; with HS 578T breast, 29.9 µM; in the experiment on MDA-MB-435, 42.9 µM. Also, the GI50 was 40.6 µM in the experiment on OVCAR-4 ovarian, 52.4 µM with OVCAR-5 ovarian, 33.3 µM in the experiment with RXF 393 renal and 40.6 µM in the experiment on SK-MEL-5 melanoma. Further, the TGI in the experiment with ACHN renal is 92.7 µM; with CAKI-1 renal it was greater than 100 µM; in the experiment with CCRF-CEM leukemia, greater than 100 µM; in the experiment with COLO 205 colon, greater than 100 µM; with HS 578T breast, 99.3 µM; in the experiment on MDA-MB-435, greater than 100 µM. Also, the TGI in the experiment on OVCAR-4 ovarian, with OVCAR-5 ovarian, in the experiment with RXF 393 renal and in the experiment with SK-MEL-5 melanoma was greater than 100 µM in each case.
`CCn1c(-c2nonc2N)nc2c(C#CC(C)(C)O)ncc(OC[C@@H]3CCCN3)c21`: the GI50 was 8.76 µM with ACHN renal; greater than 25 µM in the experiment with CAKI-1 renal; 2.33 µM in the experiment on CCRF-CEM leukemia; 2.94 µM with COLO 205 colon; 1.72 µM with HS 578T breast; 11.6 µM in the experiment on MDA-MB-435. In addition, the GI50 in the experiment on OVCAR-4 ovarian was 8.88 µM; in the experiment with OVCAR-5 ovarian, 10.6 µM; in the experiment on RXF 393 renal, 0.189 µM; in the experiment on SK-MEL-5 melanoma it was 10.5 µM. In addition, the TGI is greater than 25 µM with ACHN renal; greater than 25 µM with CAKI-1 renal; greater than 25 µM in the experiment on CCRF-CEM leukemia; 7.62 µM with COLO 205 colon; greater than 19.5 µM in the experiment on HS 578T breast; greater than 25 µM in the experiment with MDA-MB-435. The TGI was greater than 25 µM in the experiment with OVCAR-4 ovarian, greater than 25 µM in the experiment on OVCAR-5 ovarian, 3.18 µM with RXF 393 renal and greater than 25 µM with SK-MEL-5 melanoma.
Regarding `C/C(N=NC(=S)N1CCCCCC1)=C1\C=CC=CN1O`, the TGI is 67.6 µM in the experiment on ACHN renal; greater than 89.3 µM with CAKI-1 renal; 4.93 µM in the experiment with CCRF-CEM leukemia; 55.2 µM in the experiment with COLO 205 colon; greater than 100 µM in the experiment with HS 578T breast; greater than 100 µM with MDA-MB-435. The TGI with OVCAR-4 ovarian is greater than 100 µM; with OVCAR-5 ovarian, greater than 100 µM; with RXF 393 renal, 79.5 µM; with SK-MEL-5 melanoma, 35.3 µM.
In the case of `Oc1cccc(-c2nc(N3CCOCC3)c3oc4ncccc4c3n2)c1`, the GI50 was 0.0878 µM and 0.164 µM in the experiment with ACHN renal; 0.318 µM and 0.342 µM with CAKI-1 renal; 0.517 µM and 0.461 µM in the experiment with CCRF-CEM leukemia; 10.5 µM and 17.8 µM with COLO 205 colon; 0.0576 µM and 0.0526 µM with HS 578T breast; 0.122 µM and 0.0675 µM in the experiment on MDA-MB-435. Moreover, the GI50 in the experiment on OVCAR-4 ovarian was 0.354 µM and 0.228 µM; with OVCAR-5 ovarian, 2.38 µM and 2.84 µM; in the experiment with RXF 393 renal, 0.0796 µM and 0.116 µM; in the experiment with SK-MEL-5 melanoma, 0.263 µM and 0.346 µM. For the same molecule, the TGI is 2.24 µM and 7.38 µM with CAKI-1 renal; greater than 100 µM with CCRF-CEM leukemia; 41.7 µM and > 72 µM with COLO 205 colon; 2.94 µM and 0.409 µM in the experiment on HS 578T breast; 0.847 µM and 0.784 µM in the experiment on MDA-MB-435; 4.12 µM and 2.9 µM in the experiment with OVCAR-4 ovarian. Also, the TGI with OVCAR-5 ovarian is greater than 26.6 µM; in the experiment with RXF 393 renal, 0.361 µM and 0.55 µM; in the experiment on SK-MEL-5 melanoma, 1.2 µM and 2.44 µM.
On to `CCOc1cccc(/C=N/NC(=O)Cc2ccc(Nc3ccnc(C(F)(F)F)c3)cc2)c1O`, for which the GI50 in the experiment with ACHN renal was 1.53 µM; in the experiment with CAKI-1 renal, 2.54 µM; in the experiment on CCRF-CEM leukemia, 0.328 µM; with COLO 205 colon it was 3.9 µM; with HS 578T breast it was 5.75 µM; in the experiment with MDA-MB-435, 3.77 µM. Besides, the GI50 in the experiment with OVCAR-4 ovarian was 0.824 µM; in the experiment with OVCAR-5 ovarian, 32.6 µM; in the experiment with RXF 393 renal it was 3.2 µM; in the experiment on SK-MEL-5 melanoma, 1.67 µM. For the same molecule, the TGI in the experiment on ACHN renal was greater than 100 µM; in the experiment on CAKI-1 renal, 52.2 µM; with CCRF-CEM leukemia, 2.76 µM; in the experiment with COLO 205 colon, greater than 100 µM; in the experiment on HS 578T breast it was greater than 100 µM; in the experiment with MDA-MB-435, greater than 100 µM. Further, the TGI with OVCAR-4 ovarian was greater than 100 µM; with OVCAR-5 ovarian it was greater than 100 µM; in the experiment with RXF 393 renal, 40 µM; with SK-MEL-5 melanoma, 5.99 µM.
`O=C1c2c(O)ccc(O)c2C(=O)c2c(NCCNCCO)ccc(NCCNCCO)c21`: the TGI with ACHN renal is 0.123 µM and 0.783 µM and 0.229 µM; with CAKI-1 renal it was 1.07 µM and 0.18 µM; in the experiment with COLO 205 colon, 1.23 µM and 0.769 µM and 1.16 µM; in the experiment with HS 578T breast it was 0.296 µM and 1.88 µM and 1.03 µM; in the experiment with MDA-MB-435, 1.65 µM and 1.07 µM and 1.82 µM; in the experiment with OVCAR-4 ovarian, 2.08 µM and 0.744 µM and 1.4 µM. Besides, the TGI in the experiment with OVCAR-5 ovarian is 1.05 µM and 4.75 µM and 2.74 µM; in the experiment with RXF 393 renal, 0.307 µM and 0.368 µM and 0.493 µM; with SK-MEL-5 melanoma, 0.689 µM and 0.329 µM and 0.657 µM. The values for the GI50 in the experiment with CCRF-CEM leukemia and in the experiment on MDA-MB-435 were 0.0139 µM and 0.297 µM, respectively.
